Test results: patent publication US11225471B2, “Antidiabetic bicyclic compounds” (Merck Sharp & Dohme Corp., priority 2017, dated 2022)

Target: T1, human GPR40 (Homo sapiens, UniProt O14842)
T1 construct: expressed in transfected cells
Experiment: Inositol Phosphate Turnover (IP1) Assay
Type: cell-based
Conditions: HEK cells stably expressing human GPR40; 60 min incubation
Procedure: Human GPR40 stable cell-lines were generated in HEK cells. The expression plasmids were transfected using lipofectamine (Life Technologies) following manufacturer's instructions. Stable cell-lines were generated following drug selection and single cell cloning. The assay was performed in 384-well format. HEK cells stably expressing human GPR40 were plated at 7500 cells per well in growth medium (DMEM/10% fetal calf serum). Cell plates were then incubated 16 hours at 37 degrees in a 5% CO2 incubator. Measurement of Inositol Phosphate Turnover (IP1) was performed using the CisBio IP-One kit (Part number 62IPAPEB). After the 16 hour incubation, the growth media was removed by centrifugation using the BlueWasher (AusWasher GUI Ver. v1.0.1.8) Protocol #21-“Light Dry” and 10 ul of stimulation buffer (prepared as described in the kit) was added to each well. In a separate plate, compounds were diluted in DMSO (200-fold over the final concentration in the assay well) and 50 nl was acoustically transferred to the appropriate well in the assay cell plate. The plates were then incubated for 60 minutes at 37 degrees in a 5% CO2 incubator. 10 ul of detection buffer (also prepared as described in the IP-One kit) was added to each well and the plates were incubated at room temperature for 60 minutes in the dark. The plates were then read in a Perkin Elmer EnVision or equivalent reader able to measure FRET. Fluorescent ratio of emission at 665 and 620 nm was then converted to IP1 concentration by back calculating from an IP1 standard curve prepared at the time of the assay. Data were normalized to % activity using a reference compound and EC50s determined using a standard 4-parameter fit.

T1 sequence (O14842 whole entry): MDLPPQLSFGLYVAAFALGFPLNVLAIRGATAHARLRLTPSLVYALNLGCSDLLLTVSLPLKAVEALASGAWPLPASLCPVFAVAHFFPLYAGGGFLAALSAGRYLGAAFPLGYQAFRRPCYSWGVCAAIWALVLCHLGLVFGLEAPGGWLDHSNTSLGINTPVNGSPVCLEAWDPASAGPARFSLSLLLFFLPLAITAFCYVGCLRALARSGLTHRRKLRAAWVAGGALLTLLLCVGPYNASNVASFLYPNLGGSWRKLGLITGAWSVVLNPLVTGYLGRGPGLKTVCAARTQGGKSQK

EC50 [nM] | SMILES
0.6 | COc1cc(-c2cnc([C@@H]3CCc4ccc([C@H](C5CC5)[C@H](C)C(=O)O)cc4O3)c(C)n2)c(Cl)cn1 (single isomer, unassigned) [Example 1]
1.3 | COc1cc(-c2cnc([C@H]3CCc4ccc([C@H](C5CC5)[C@H](C)C(=O)O)cc4O3)c(C)n2)c(Cl)cn1 (single isomer, unassigned) [Example 2]
7.8 | CCOc1cc(-c2ncc(C3CCc4ccc([C@H](C5CC5)[C@H](C)C(=O)O)cc4O3)nc2C)c(F)cn1 (single isomer, unassigned) [Example 3]
6.9 | CCOc1cc(-c2ncc(C3CCc4ccc([C@H](C5CC5)[C@H](C)C(=O)O)cc4O3)nc2C)c(F)cn1 (single isomer, unassigned) [Example 4]
11.2 | COc1cc(-c2ncc(C3CCc4ccc([C@H](C5CC5)[C@H](C)C(=O)O)cc4O3)nc2C)c(Cl)cn1 (single isomer, unassigned) [Example 5]
3.3 | COc1cc(-c2ncc(C3CCc4ccc([C@H](C5CC5)[C@H](C)C(=O)O)cc4O3)nc2C)c(Cl)cn1 (single isomer, unassigned) [Example 6]
0.9 | Cc1nc(-c2cc(OCC(F)F)ncc2F)cnc1C1CCc2ccc([C@H](C3CC3)[C@H](C)C(=O)O)cc2O1 (single isomer, unassigned) [Example 7]
1 | Cc1nc(-c2cc(OCC(F)F)ncc2F)cnc1C1CCc2ccc([C@H](C3CC3)[C@H](C)C(=O)O)cc2O1 (single isomer, unassigned) [Example 8]
0.7 | CCOc1cc(-c2cnc(C3CCc4ccc([C@H](C5CC5)[C@H](C)C(=O)O)cc4O3)c(C)n2)c(F)cn1 (single isomer, unassigned) [Example 9]
4.1 | COc1cc(-c2ncc(C3CCc4ccc([C@H](C5CC5)[C@H](C)C(=O)O)cc4O3)nc2C)c(Cl)cn1 (single isomer, unassigned) [Example 13]
13.8 | COc1cc(-c2ncc(C3CCc4ccc([C@H](C5CC5)[C@H](C)C(=O)O)cc4O3)nc2C)c(Cl)cn1 (single isomer, unassigned) [Example 14]
3 | COc1cc(-c2ncc(C3CCc4ccc([C@H](C5CC5)[C@H](C)C(=O)O)c(F)c4O3)nc2C)c(F)cn1 (single isomer, unassigned) [Example 15]
6.6 | COc1cc(-c2ncc(C3CCc4ccc([C@H](C5CC5)[C@H](C)C(=O)O)c(F)c4O3)nc2C)c(F)cn1 (single isomer, unassigned) [Example 16]
0.3 | COc1cc(-c2cnc(C3CCc4ccc([C@H](C5CC5)[C@H](C)C(=O)O)c(F)c4O3)c(C)n2)c(F)cn1 (single isomer, unassigned) [Example 17]
4.2 | COc1cc(-c2cnc(C3CCc4ccc([C@H](C5CC5)[C@H](C)C(=O)O)c(F)c4O3)c(C)n2)c(F)cn1 (single isomer, unassigned) [Example 18]
1.1 | CCOc1cc(-c2cnc(C3CCc4ccc([C@H](C5CC5)[C@H](C)C(=O)O)c(F)c4O3)c(C)n2)c(F)cn1 (single isomer, unassigned) [Example 19]
0.4 | CCOc1cc(-c2cnc(C3CCc4ccc([C@H](C5CC5)[C@H](C)C(=O)O)c(F)c4O3)c(C)n2)c(F)cn1 (single isomer, unassigned) [Example 20]
0.3 | COc1cc(-c2cnc(C3CCc4ccc([C@H](C5CC5)[C@H](C)C(=O)O)c(F)c4O3)c(C)n2)c(Cl)cn1 (single isomer, unassigned) [Example 21]
1.6 | COc1cc(-c2cnc(C3CCc4ccc([C@H](C5CC5)[C@H](C)C(=O)O)c(F)c4O3)c(C)n2)c(Cl)cn1 (single isomer, unassigned) [Example 22]
8.1 | COc1cc(-c2cnc(C3CCc4ccc([C@H](C5CC5)[C@H](C)C(=O)O)cc4O3)c(C)n2)c(C)cn1 (single isomer, unassigned) [Example 25]
5.4 | COc1cc(-c2cnc(C3CCc4ccc([C@H](C5CC5)[C@H](C)C(=O)O)cc4O3)c(C)n2)c(C2CC2)cn1 (single isomer, unassigned) [Example 26]
3.5 | CCOc1cc(-c2ncc([C@H]3CCc4ccc([C@H](C5CC5)[C@H](C)C(=O)O)c(F)c4O3)nc2C)c(F)cn1 [Example 11, (2S,3R)-3-cyclopropyl-3-((R)-2-(5-(2-ethoxy-5-fluoropyridin-4-yl)-6-methylpyrazin-2-yl)-8-fluorochroman-7-yl)-2-methylpropanoic acid]
4.3 | CCOc1cc(-c2ncc([C@@H]3CCc4ccc([C@H](C5CC5)[C@H](C)C(=O)O)c(F)c4O3)nc2C)c(F)cn1 [Example 12, (2S,3R)-3-cyclopropyl-3-((S)-2-(5-(2-ethoxy-5-fluoropyridin-4-yl)-6-methylpyrazin-2-yl)-8-fluorochroman-7-yl)-2-methylpropanoic Acid]
6.5 | CCc1nc([C@H]2CCc3ccc([C@H](C4CC4)[C@H](C)C(=O)O)cc3O2)cnc1-c1cc(OC)ncc1F [Example 23, (2S,3R)-3-cyclopropyl-3-((R)-2-(6-ethyl-5-(5-fluoro-2-methoxypyridin-4-yl)pyrazin-2-yl)chroman-7-yl)-2-methylpropanoic acid]
2.3 | CCc1nc([C@@H]2CCc3ccc([C@H](C4CC4)[C@H](C)C(=O)O)cc3O2)cnc1-c1cc(OC)ncc1F [Example 24, (2S,3R)-3-cyclopropyl-3-((S)-2-(6-ethyl-5-(5-fluoro-2-methoxypyridin-4-yl)pyrazin-2-yl)chroman-7-yl)-2-methylpropanoic Acid]
1.7 | COc1cc(-c2cnc([C@H]3C[C@H](OC)c4ccc([C@H](C5CC5)[C@H](C)C(=O)O)cc4O3)cn2)c(F)cn1 [Example 27, (2S,3R)-3-cyclopropyl-3-{(2R,4S)-2-[5-(5-fluoro-2-methoxypyridin-4-yl)pyrazin-2-yl]-4-methoxy-3,4-dihydro-2H-chromen-7-yl}-2-methylpropanoic Acid]
